According to PubChem BioAssay AID1626 (SRMLSC, 2009):

Tested on: M. tuberculosis H37Rv growth inhibition
Assay: M. tuberculosis H37Rv growth inhibitors, H37Rv strain (AID 1626)
Settings: for IC90: measured here: IC90 against H37Rv; for CC50: measured here: Vero cell cytotoxicity

| Structure (SMILES) | IC50 [µM] | IC90 [µM] | CC50 [µM] |
| --- | --- | --- | --- |
| O=C(Cn1cnc2c(nnn2-c2ccccc2)c1=O)N1CCC(Cc2ccccc2)CC1 | 5.79 | 6.58 | > 40 |
| Cc1ccc(C(=O)/C=C/c2ccccc2[N+](=O)[O-])cc1 | 4.21 | 7.62 | 26.5 |
| COc1c(C)cc(C(=O)C2CCCN(Cc3cccc(C)n3)C2)cc1C (centres undefined) | 18.6 | > 100 | > 40 |
| Cc1cccc(C)c1N1CCN(c2ccc3nnc(C(F)(F)F)n3n2)CC1 | 11.8 | 61.8 | > 40 |
| CC(C)c1ccc(C2C3=C(CC(C)(C)CC3=O)NC3=C2C(=O)c2ccccc23)cc1 (centres undefined) | 50.6 | > 100 | > 40 |
| COc1ccccc1NC(CC(=O)c1ccccc1)C(=O)OCC(=O)c1ccc(Br)cc1 (centres undefined) | 13.8 | 21.1 |  |
| C=CCn1c(SCc2ccc(C(=O)Nc3nccs3)cc2)nnc1-c1ccc(C)c(Cl)c1 | 6.82 | 17.6 | 32.9 |
| COCc1ccc(O)c2ncccc12 | 10.9 | 12 | 9.76 |
| CCCCOC(=O)c1ccc(NC(=O)C(=O)NCc2ccccn2)cc1 |  | > 100 |  |
| CCOC(=O)c1ccc(N2CN=C3SCC(=O)N3C2)cc1 | 11.9 | > 100 |  |
| COc1ccc(C2(O)CC3CCC(C2)N3c2cc(C)nc(-c3ccccc3)n2)cc1 (centres undefined) | 17.5 | 23.9 | > 40 |
| Cc1cc(Cl)n2c(nc3cc(F)c(F)cc32)c1C#N | 3.98 | 10.5 | 2.29 |
| CCC1CCCCN1C(=O)COC(=O)c1cc2ccccc2cc1O (centres undefined) | 1.25 | 4.34 |  |
| Cc1ccc(Nc2cc(C)nn2-c2nc(C)cc(=O)[nH]2)cc1 | < 0.391 | 5.56 | 1.95 |
| CCS(=O)(=O)Nc1ccc(-c2cc(-c3ccccc3)c3cc(C)ccc3n2)cc1 | 9.19 | 13.5 | 34.7 |
| c1ccc(-c2nnc(SCc3nnc(-c4cccs4)o3)o2)cc1 | 6.34 | 11.6 |  |
| CC(=O)c1ccc(NC(=O)c2cc(CC(C)C)on2)cc1 | 7.21 | 42.9 |  |
| COc1cc(-c2cc(C(=O)Nc3nc4ccccc4s3)c3ccccc3n2)cc(OC)c1OC |  | > 100 | > 40 |
| O=C(OCC#CCSc1nc2ccccc2o1)c1cc2ccccc2o1 | 5.72 | 12.7 | > 40 |
| CCc1ccc(/C=C/C(=O)C2C(=O)c3ccccc3C2=O)cc1 | 1.76 | 2.92 | > 40 |
| COc1ccc(C2CC(=O)N3CN(c4ccc(C)c(Cl)c4)CSC3=C2C#N)cc1OC (centres undefined) |  | > 100 |  |

| Structure (SMILES) | IC50 [µM] | IC90 [µM] | CC50 [µM] |
| --- | --- | --- | --- |
| COc1ccc(OCc2n(CC(=O)OC3CC(C)CCC3C(C)C)c3ccccc3[n+]2C)cc1 (centres undefined) | 3.34 | 5.49 | 26.4 |
| CC(=O)Nc1nc2ccccc2n1Cc1ccccc1 | 2.74 | 3.59 | > 40 |
| CCCCOc1ccc(C(=O)N/C(=C/C=C/c2ccccc2)C(=O)N2CCOCC2)cc1 | 13.9 | > 100 | > 40 |
| O=C(Nc1cccnc1)c1c(O)c2cccc3c2n(c1=O)CC3 | 1.87 | 2.08 |  |
| O=C(Nc1nc2ccccc2[nH]1)c1cc2ccccc2o1 | 37.2 | > 100 | > 40 |
| O=C(Nc1nnc(-c2ccccn2)o1)c1cccc(Cl)c1 | 5.25 | > 100 | > 40 |
| COc1ccc(NC2=NCC(Cc3ccc(Br)cc3)S2)cc1 (centres undefined) | 10.2 | 15.9 | > 40 |
| Cc1occc1-c1nnc(SCC(=O)NCCc2ccccc2)o1 | 15 | > 100 |  |
| Cc1ccccc1-c1nc2cc(N)ccc2o1 | 15.3 | > 100 |  |
| Oc1cc(-c2ccccc2)c2ccccc2c1 | 27.2 | > 100 | > 40 |
| Cc1cc(C2N=C(N)Nc3nc4ccccc4n32)c(C)n1-c1ccccc1Cl (centres undefined) | 7.61 | 12.2 |  |
| Cc1nc2c(-c3ccc(Cl)cc3)c(C)[nH]n2c(=O)c1Cc1ccccc1 | 1.98 | 9.69 | 4.04 |
| COc1ccc(-c2nn(-c3ccccc3)cc2/C=N/N=C(N)N)cc1OC | 13.3 | 22.6 | 32.3 |
| COC(=O)CSc1nnc(-c2ccc(OC)c(OC)c2)o1 | 1.43 | 5.53 |  |
| O=C(CCCSc1ccccc1)Nc1nc(-c2ccccn2)cs1 | 0.239 | 5.04 | > 40 |
| O=C(Nc1nc2ccccc2[nH]1)C12CC3CC(CC(C3)C1)C2 | 2.25 | 13.1 | > 40 |
| Cn1ncc2c(Nc3cccc(Cl)c3)nc(Nc3cccc(Cl)c3)nc21 | 11.7 | 23.6 | 26.9 |
| Cc1cc(=O)oc2cc(OC(=O)c3ccco3)ccc12 | 61.6 | > 100 |  |
| CC(C)(C)c1cc(NCCCn2ccnc2)n2ncc(-c3ccccc3)c2n1 | 1.76 | 2.89 | 15.9 |
| CCOc1ccc(NC2C=CS(=O)(=O)C2)cc1 (centres undefined) |  | > 100 |  |
| COc1ccc(C2NCCc3c2[nH]c2ccccc32)cc1COc1ccc(F)cc1 (centres undefined) | 3.11 | 3.39 | 12.1 |

| Structure (SMILES) | IC50 [µM] | IC90 [µM] | CC50 [µM] |
| --- | --- | --- | --- |
| CC1CC1C(=O)Nc1nc(-c2ccccn2)cs1 (centres undefined) | 2.13 | 4.75 | 25.9 |
| Cc1ccc(C(=O)/C=C/C(=O)c2ccc(C)cc2)cc1 | 5.49 | 9.24 | > 40 |
| COc1cnc(-c2ccccn2)nc1Sc1ccccc1Cl | 1.94 | 6.23 | 7.16 |
| Cc1ccc(Nc2cc(C)nc(NCc3ccccc3)n2)cc1 | 6.69 | 9.45 | > 40 |
| COC(=O)c1cc(=O)n(-c2ccccc2)c(=Nc2ccccc2)s1 | 5.19 | 17.7 | 27.6 |
| CC(C)=CCOc1ccc([C@@H]2COc3c(ccc4c3C=CC(C)(C)O4)C2)c(O)c1 | 19.4 | 60.9 | > 40 |
| COc1cc(CC(=O)Nc2ccc3nc(SC)sc3c2)cc(OC)c1OC | 11.3 | 16.1 |  |
| COc1ccc(NC(=O)COC(=O)CCCOc2ccc(Cl)cc2Cl)cc1Cl | 80.6 | > 100 |  |
| COc1ccc(OC(=O)CCc2c[nH]c3ccccc23)cc1 | 18.2 | > 100 |  |
| CC(C)(C)c1nn(-c2ccccc2)c2[nH]c(=O)c(CNCc3ccc4c(c3)OCO4)cc12 | 11.3 | 13.8 | > 40 |
| O=C(COC(=O)c1sc2ccccc2c1Cl)NC1CCCCC1 | 12.7 | > 100 | > 40 |
| CCCCn1c(O)c(C(C)=Nc2ccc(OCC)cc2)c(=O)[nH]c1=O | 5.45 | > 100 | > 40 |
| COc1ccc(N=Cc2c(O)c3ccccc3oc2=O)cc1 |  | > 100 | > 40 |
| Cc1cc(Oc2ccc(Cl)cc2)nc(-c2ccccn2)n1 | 14.5 | > 100 | 21.1 |
| Cc1cc(-c2ccc(/C=N/n3cnnc3)o2)ccc1Cl |  | > 100 |  |
| Cc1nc2ccc(NC(=O)c3ccc(Br)o3)cc2s1 | 64.2 | > 100 |  |
| CCc1ccc(Nc2nnc(SCC(=O)Nc3cccnc3Cl)s2)cc1 | 5.02 | 13.6 |  |
| CCCc1nc2sc3ccccc3c(=O)c2c(=O)n1Cc1ccc(OC)cc1 |  | > 100 | > 40 |
| CCc1ccccc1NC(=O)c1cccc(NC(=O)/C=C/c2ccco2)c1 |  |  | > 40 |
| COc1cccc(N2CCN(c3cnc4ccccc4n3)CC2)c1 | 25.3 | > 100 |  |
| CC(=O)C1=C(C)NC(SCC(=O)c2ccc(Cl)c(Cl)c2)=C(C#N)C1c1ccco1 (centres undefined) | 5.85 | 6.67 | > 40 |

| Structure (SMILES) | IC50 [µM] | IC90 [µM] | CC50 [µM] |
| --- | --- | --- | --- |
| Nc1nc(CN2CCN(C(c3ccccc3)c3ccccc3)CC2)nc(Nc2ccccc2)n1 | 36.4 | > 100 | > 40 |
| Oc1ccccc1CNc1cnc2ccccc2c1 | 11.1 | > 100 | > 40 |
| COc1ccc(OC(=O)c2cnn(-c3ccccc3)c2C)cc1 | 71.2 | > 100 |  |
| CCCOC(=O)c1ccc(NC(=O)CCC(=O)OCC)cc1 | < 0.195 | > 100 |  |
| O=C(c1cc2nc(-c3ccccc3)cc(-c3ccccc3)n2n1)N1CCN(C(=O)c2ccco2)CC1 | 5.92 | 17.6 | > 40 |
| O=C(CCSc1ccc(Cl)cc1)c1cccs1 |  | > 100 |  |
| O=C(c1ccccc1)c1c2c(cc3sc4ccccc4[n+]13)-c1cccc3cccc-2c13 | 2.81 | 5.22 | 23.1 |
| Cc1ccc(S(=O)(=O)CCc2nnc(NC(=O)c3ccccn3)s2)cc1 |  |  | 38 |
| Cc1[nH][nH]c(=O)c1C(c1ccc(-c2ccc(Cl)cc2)o1)c1c(C)[nH][nH]c1=O | 3.69 | 17 | > 40 |
| Nc1nc(-c2cccc(Br)c2)cs1 | 23.8 | > 100 |  |
| O=C(Nc1ccc(N2CCN(C(=O)c3ccccc3)CC2)cc1)c1ccc([N+](=O)[O-])o1 | < 0.195 | < 0.195 | 1.63 |
| c1ccc(N2CCN(c3nc(-c4ccccn4)nc4ccccc34)CC2)cc1 | 0.924 | 1.62 | 25.9 |
| COc1c(Cl)cc(Cl)cc1/C=C/C(=O)c1ccc(NC(=O)c2cccs2)cc1 | 7.91 | 16.4 | 6.47 |
| CCOC(=O)c1ccc(NCc2ccc(N(C)C)cc2)cc1 |  | > 100 |  |
| O=C1OC(/C(=C\Nc2cc(Cl)ccc2O)[N+](=O)[O-])c2ccccc21 (centres undefined) | 57.2 | > 100 | > 40 |
| COc1ccc(OC)c(C2C3=C(N=c4s/c(=C\c5cccc(O)c5)c(=O)n42)c2ccccc2CC3)c1 (centres undefined) | 11.1 | > 100 | 19.9 |
| COc1ccc(N2CCN(c3nc(-c4cccs4)nc4ccccc34)CC2)cc1 |  | > 100 |  |
| O=C1c2cccc3c(N4CCOCC4)c([N+](=O)[O-])cc(c23)C(=O)N1c1cccc2ccccc12 | 5.97 | 6.82 | > 40 |
| CCCOC(=O)c1ccc(NC(=O)c2ccc(Br)o2)cc1 | 0.683 | 2.82 |  |
